In patent US8846947B2, “Benzimidazoles and related analogs as sirtuin modulators” (GlaxoSmithKline LLC, priority 2008, dated 2014):

Biological target: T1, SIRT1 (Homo sapiens, UniProt Q96EB6)
T1 sequence (Q96EB6 1-747): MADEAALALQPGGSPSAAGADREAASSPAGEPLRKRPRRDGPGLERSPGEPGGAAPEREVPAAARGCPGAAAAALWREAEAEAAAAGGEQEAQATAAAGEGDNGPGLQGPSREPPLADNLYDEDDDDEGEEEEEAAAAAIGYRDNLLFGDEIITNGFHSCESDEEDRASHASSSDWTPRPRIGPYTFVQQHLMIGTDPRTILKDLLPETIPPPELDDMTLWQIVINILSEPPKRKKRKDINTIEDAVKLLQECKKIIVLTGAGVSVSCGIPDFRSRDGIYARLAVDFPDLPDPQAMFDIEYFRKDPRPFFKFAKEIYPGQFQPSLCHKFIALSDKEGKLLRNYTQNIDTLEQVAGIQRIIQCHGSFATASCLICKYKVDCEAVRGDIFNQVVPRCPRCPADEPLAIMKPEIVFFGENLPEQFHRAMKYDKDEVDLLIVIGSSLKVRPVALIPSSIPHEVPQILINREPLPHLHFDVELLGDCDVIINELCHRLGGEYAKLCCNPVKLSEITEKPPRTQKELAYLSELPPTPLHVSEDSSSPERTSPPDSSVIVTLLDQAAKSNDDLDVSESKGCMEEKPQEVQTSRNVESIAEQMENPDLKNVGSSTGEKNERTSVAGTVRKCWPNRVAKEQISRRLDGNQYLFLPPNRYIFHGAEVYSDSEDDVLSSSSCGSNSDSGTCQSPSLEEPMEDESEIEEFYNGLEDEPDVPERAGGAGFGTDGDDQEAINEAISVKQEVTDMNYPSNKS
Assay: Mass spectrometry based SIRT1 deacetylase activation assay (acetylated p53-derived peptide substrate)
Format: biochemical
Conditions: 0.5 μM peptide substrate, 120 μM βNAD+, 10 nM SIRT1, 25 min at 25° C.; for EC1.5: read-out: EC1.5

Fold Act. (percent maximum fold activation) | EC1.5 | SMILES
A (Fold activation >200%) | < 1000 nM | CC(C)N1CCN(c2cccc(-c3nc4c(C(=O)Nc5nccs5)cccc4[nH]3)c2)CC1 [Compound 529]
A (Fold activation >200%) | < 1000 nM | CC(C)N1CCN(c2cccc(-c3nc4c(C(=O)Nc5ccccn5)cccc4[nH]3)c2)CC1 [Compound 530]
A (Fold activation >200%) | < 1000 nM | O=C(Nc1cccnc1)c1cccc2[nH]c(-c3cccc4c3OC(F)(F)O4)nc12 [Compound 531]
A (Fold activation >200%) | < 1000 nM | Cc1cnc(NC(=O)c2cccc3[nH]c(-c4cccc5c4OC(F)(F)O5)nc23)s1 [Compound 532]
B (Fold Activation <200%) | > 25000 nM | O=C1COc2ccc(-c3nc4c(C(=O)Nc5cccnc5)cccc4[nH]3)cc2N1 [Compound 533]
A (Fold activation >200%) | < 1000 nM | Cc1cnc(NC(=O)c2cccc3[nH]c(-c4ccc5c(c4)NC(=O)CO5)nc23)s1 [Compound 534]
A (Fold activation >200%) | < 1000 nM | O=C(Nc1ccccn1)c1cccc2[nH]c(-c3ccc(OC4CCNCC4)cc3)nc12 [Compound 535]
A (Fold activation >200%) | 1000 to 25000 nM | O=C(Nc1cccnc1)c1cccc2[nH]c(-c3ccc(OC4CCNCC4)cc3)nc12 [Compound 536]
A (Fold activation >200%) | < 1000 nM | Cc1cnc(NC(=O)c2cccc3[nH]c(-c4ccc(OC5CCNCC5)cc4)nc23)s1 [Compound 537]
A (Fold activation >200%) | 1000 to 25000 nM | O=C(Nc1ccccn1)c1cccc2[nH]c(-c3ccccc3OC3CCNCC3)nc12 [Compound 538]
A (Fold activation >200%) | 1000 to 25000 nM | O=C(Nc1cccnc1)c1cccc2[nH]c(-c3ccccc3OC3CCNCC3)nc12 [Compound 539]
A (Fold activation >200%) | < 1000 nM | O=C(Nc1ccccn1)c1cccc2[nH]c(-c3ccnc(N4CCCC4)c3)nc12 [Compound 540]
A (Fold activation >200%) | < 1000 nM | O=C(Nc1ccc(CN2CCCC2)cn1)c1cccc2[nH]c(-c3ccccc3C(F)(F)F)nc12 [Compound 541]
A (Fold activation >200%) | < 1000 nM | O=C(Nc1ccc(CN2CCCC2)cn1)c1cccc2[nH]c(-c3ccc(Cl)cc3C(F)(F)F)nc12 [Compound 542]
B (Fold Activation <200%) | 1000 to 25000 nM | O=C(Nc1nccs1)c1cccc2[nH]c(-c3cc(F)cc(Cl)c3OCCN3CCOCC3)nc12 [Compound 543]
B (Fold Activation <200%) | 1000 to 25000 nM | O=C(Nc1ccccn1)c1cccc2[nH]c(-c3cc(F)cc(Cl)c3OCCN3CCOCC3)nc12 [Compound 544]
A (Fold activation >200%) | < 1000 nM | Cc1ccc(OCCN2CCOCC2)c(-c2nc3c(C(=O)Nc4nccs4)cccc3[nH]2)c1 [Compound 545]
A (Fold activation >200%) | 1000 to 25000 nM | Cc1ccc(OCCN2CCOCC2)c(-c2nc3c(C(=O)Nc4ccccn4)cccc3[nH]2)c1 [Compound 546]

Fold Act. (percent maximum fold activation) | EC1.5 | SMILES
B (Fold Activation <200%) | 1000 to 25000 nM | CC(C)(C)c1ccc(OCCN2CCOCC2)c(-c2nc3c(C(=O)Nc4nccs4)cccc3[nH]2)c1 [Compound 547]
B (Fold Activation <200%) | < 1000 nM | CC(C)(C)c1ccc(OCCN2CCOCC2)c(-c2nc3c(C(=O)Nc4ccccn4)cccc3[nH]2)c1 [Compound 548]
A (Fold activation >200%) | < 1000 nM | Cc1cnc(NC(=O)c2cccc3[nH]c(-c4ccc(N5CCOCC5)cc4C(F)(F)F)nc23)s1 [Compound 549]
A (Fold activation >200%) | < 1000 nM | O=C(Nc1cccnn1)c1cccc2[nH]c(-c3ccc(N4CCOCC4)cc3C(F)(F)F)nc12 [Compound 550]
A (Fold activation >200%) | < 1000 nM | O=C(Nc1nccs1)c1cccc2[nH]c(-c3ccc(N4CCOCC4)cc3C(F)F)nc12 [Compound 551, 2-(2-(difluoromethyl)-4-morpholinophenyl)-N-(thiazol-2-yl)-1H-benzo[d]imidazole-4-carboxamide]
A (Fold activation >200%) | < 1000 nM | Cc1cnc(NC(=O)c2cccc3[nH]c(-c4ccc(N5CCOCC5)cc4C(F)F)nc23)s1 [Compound 552]
A (Fold activation >200%) | < 1000 nM | O=C(Nc1ccccn1)c1cccc2[nH]c(-c3ccc(N4CCOCC4)cc3C(F)F)nc12 [Compound 553]
A (Fold activation >200%) | < 1000 nM | O=C(Nc1cccnc1)c1cccc2[nH]c(-c3ccc(N4CCOCC4)cc3C(F)F)nc12 [Compound 554]
A (Fold activation >200%) | < 1000 nM | O=C(Nc1cccnn1)c1cccc2[nH]c(-c3ccc(N4CCOCC4)cc3C(F)F)nc12 [Compound 555]
A (Fold activation >200%) | < 1000 nM | O=C(Nc1nccs1)c1cccc2[nH]c(-c3ccc(OC[C@H](O)CO)cc3C(F)F)nc12 [Compound 556, (R)-2-(2-(difluoromethyl)-4-(2,3-dihydroxypropoxy)phenyl)-N-(thiazol-2-yl)-1H-benzo[d]imidazole-4-carboxamide]
A (Fold activation >200%) | < 1000 nM | Cc1cnc(NC(=O)c2cccc3[nH]c(-c4ccc(OCC(O)CO)cc4C(F)F)nc23)s1 (stereo not drawn) [Compound 557]
A (Fold activation >200%) | < 1000 nM | O=C(Nc1ccccn1)c1cccc2[nH]c(-c3ccc(OCC(O)CO)cc3C(F)F)nc12 (stereo not drawn) [Compound 558]
A (Fold activation >200%) | < 1000 nM | O=C(Nc1nccs1)c1cccc2[nH]c(-c3ccc(F)cc3C(F)F)nc12 [Compound 559, 2-(2-(difluoromethyl)-4-fluorophenyl)-N-(thiazol-2-yl)-1H-benzo[d]imidazole-4-carboxamide]
A (Fold activation >200%) | < 1000 nM | Cc1cnc(NC(=O)c2cccc3[nH]c(-c4ccc(F)cc4C(F)F)nc23)s1 [Compound 560]
A (Fold activation >200%) | < 1000 nM | O=C(Nc1ccccn1)c1cccc2[nH]c(-c3ccc(F)cc3C(F)F)nc12 [Compound 561]
A (Fold activation >200%) | < 1000 nM | O=C(Nc1nccs1)c1cccc2[nH]c(-c3ccc(Cl)cc3C(F)F)nc12 [Compound 562]
A (Fold activation >200%) | < 1000 nM | Cc1cnc(NC(=O)c2cccc3[nH]c(-c4ccc(Cl)cc4C(F)F)nc23)s1 [Compound 563]
A (Fold activation >200%) | 1000 to 25000 nM | O=C(Nc1ccccn1)c1cccc2[nH]c(-c3ccc(Cl)cc3C(F)F)nc12 [Compound 564]
